Assay results from US20040023295A1, “Methods and systems for analyzing complex biological systems” (priority 2001, published 2004).

System: Saccharomyces cerevisiae wild type strain BY4743
Assay: Yeast azole drug experiment AF1: metabolite analysis (GC-MS, LC-MS)
Assay type: cell-based

C[C@@H]1[C@H](O)[C@@H](C)/C=C/C=C/C=C/C=C/C=C/C=C/C=C/[C@H](O[C@@H]2O[C@H](C)[C@@H](O)[C@H](N)[C@@H]2O)C[C@@H]2O[C@](O)(C[C@@H](O)C[C@@H](O)[C@H](O)CC[C@@H](O)C[C@@H](O)CC(=O)O[C@H]1C)C[C@H](O)[C@H]2C(=O)O [Amphoteracin B]
Fold Change urocanic acid (nLC): 0 | Fold Change xanthosine-DiH2O (nLC): 0 | Fold Change zeatin (nLC): 0 | Fold Change urocanic acid (pLC): 0 | Fold Change xanthosine (diH2O) (pLC): 0 | Fold Change zeatin (pLC): 0 | Fold Change of metabolite disaccaride2 (platform GC, p-Value 0.000388379): −0.9977 | Fold Change of metabolite disaccaride3 (platform GC, p-Value 0.000700744): −0.9977 | Fold Change of metabolite tms glutamine3 (platform GC, p-Value 0.003279434): −0.8935 | Fold Change of metabolite phenylalanine (platform GC, p-Value 0.010760299): −0.9797 | Fold Change of metabolite ornithine3 (platform GC, p-Value 0.011300115): −0.9853 | Fold Change of metabolite TMS mevalonic acid lactone (platform GC, p-Value 0.012983194): −0.9767 | Fold Change of metabolite malic acid (platform GC, p-Value 0.015444108): −0.963 | Fold Change of metabolite leucine (platform GC, p-Value 0.015876175): −0.9443 | Fold Change of metabolite glutamine (platform GC, p-Value 0.019324613): −0.9116 | Fold Change of metabolite sugar? (platform GC, p-Value 0.019518223): −0.933 | Fold Change of metabolite isoleucine (platform GC, p-Value 0.021030517): −0.9533 | Fold Change of metabolite aspartic acid (platform GC, p-Value 0.024172801): −0.9743 | Fold Change of metabolite tms tyrosine3 (platform GC, p-Value 0.029953667): −0.9473 | Fold Change of metabolite tms lysine4 (platform GC, p-Value 0.032217789): −0.9783 | Fold Change of metabolite glycanopyrose (platform GC, p-Value 0.041202857): −0.958 | Fold Change of metabolite alanine (platform GC, p-Value 0.054639399): −0.7773 | Fold Change of metabolite threonine3 (platform GC, p-Value 0.063199416): −0.8933 | Fold Change of metabolite threonine2 (platform GC, p-Value 0.073159868): −0.8553 | Fold Change of metabolite glycerol (platform GC, p-Value 0.089234962): −0.815 | Fold Change of metabolite ergosterol (platform GC, p-Value 0.114118055): 2.303 | Fold Change of metabolite fucosterol (platform GC, p-Value 0.186711806): −0.6553 | Fold Change of metabolite iso citric acid (platform GC, p-Value 0.233348939): −0.6183 | Fold Change of metabolite squalene (platform GC, p-Value 0.254158772): −0.5745 | Fold Change of metabolite oleic acid (platform GC, p-Value 0.325422554): −0.4593 | Fold Change of metabolite glycine (platform GC, p-Value 0.431923912): 0.8807 | Fold Change of metabolite lysine (platform GC, p-Value 0.488896519): −0.3925 | Fold Change of metabolite palmiteliadic acid (platform GC, p-Value 0.503020409): 0.515 | Fold Change of metabolite tms tyrosine2 (platform GC, p-Value 0.601581614): −0.3593 | Fold Change of metabolite octadecanoic acid (platform GC, p-Value 0.660192025): 0.21 | Fold Change of metabolite mevalonic acid lactone (platform GC, p-Value 0.690626296): −0.1276 | Fold Change of metabolite pyrimidine (platform GC, p-Value 0.744108261): −0.185 | Fold Change of metabolite tetradecanoic acid (platform GC, p-Value 0.793963653): 0.07967 | Fold Change of metabolite hexadecanoic acid (platform GC, p-Value 0.921125845): −0.2427 | Fold Change of metabolite phosphate (platform GC, p-Value 0.983733869): −0.007333 | Fold Change of metabolite campesterol (platform GC, p-Value 1): 0 | Fold Change of metabolite desmosterol (platform GC, p-Value 1): 0 | Fold Change of metabolite ornithine2 (platform GC, p-Value 1.48992E−05): −1 | Fold Change of metabolite asparagine (platform GC, p-Value 6.41E−06): −1 | Fold Change of metabolite disaccaride1 (platform GC, p-Value 7.54E−06): −1 | Fold Change of metabolite lanosterol (platform GC, p-Value 7.71E−06): −1 | Fold Change of metabolite kinetin (platform nLC (first kinetin line), p-Value 1): 0 | Fold Change of metabolite kinetin (platform nLC (second kinetin line), p-Value 1): 0 | Fold Change of metabolite cytidine (platform nLC, p-Value 0.000680198): −0.9986 | Fold Change of metabolite isocitric/citric/qu (platform nLC, p-Value 0.027544382): 2.549 | Fold Change of metabolite lactic acid (platform nLC, p-Value 0.077524891): −0.02583 | Fold Change of metabolite allantoin (platform nLC, p-Value 0.149169352): 3.97 | Fold Change of metabolite orotic acid (platform nLC, p-Value 0.186179266): 8380 | Fold Change of metabolite succinic (platform nLC, p-Value 0.193450596): 0.8663 | Fold Change of metabolite 3-indolylacetonitri (platform nLC, p-Value 0.197015297): −0.9998 | Fold Change of metabolite citrulline (platform nLC, p-Value 0.217809679): 1659 | Fold Change of metabolite 2-ketobutyric acid (platform nLC, p-Value 0.225631474): −0.9992 | Fold Change of metabolite sucrose (platform nLC, p-Value 0.225682636): 0.4493 | Fold Change of metabolite fumaric/3m2oxobutan (platform nLC, p-Value 0.238894937): 0.4423 | Fold Change of metabolite glucosamine6PO4 (platform nLC, p-Value 0.273438701): −0.9951 | Fold Change of metabolite gallic acid (platform nLC, p-Value 0.29960644): 0.1622 | Fold Change of metabolite arginine (platform nLC, p-Value 0.315413423): −0.4885 | Fold Change of metabolite biotin (platform nLC, p-Value 0.363209057): 1.077 | Fold Change of metabolite nopaline (platform nLC, p-Value 0.369522244): 0.3342 | Fold Change of metabolite hypoxanthine (platform nLC, p-Value 0.372039959): 0.1655 | Fold Change of metabolite tryptophan (platform nLC, p-Value 0.380816515): 1.142 | Fold Change of metabolite DLaminoadipic acid (platform nLC, p-Value 0.40985594): 1.411 | Fold Change of metabolite inostol/glucos/sorb (platform nLC, p-Value 0.41837757): −0.5905 | Fold Change of metabolite guanosine (platform nLC, p-Value 0.425021511): 1.131 | Fold Change of metabolite caffeic acid (platform nLC, p-Value 0.427037943): −0.5882 | Fold Change of metabolite ornithine (platform nLC, p-Value 0.473753211): 2.534 | Fold Change of metabolite malic acid (platform nLC, p-Value 0.497517178): 0.6212 | Fold Change of metabolite proline (platform nLC, p-Value 0.518220081): 0.4603 | Fold Change of metabolite 2-ketoglutaric (platform nLC, p-Value 0.622408732): 8.791 | Fold Change of metabolite alanine (platform nLC, p-Value 0.62524207): 0.1599 | Fold Change of metabolite sorbitol/mannitol (platform nLC, p-Value 0.68492695): 0.2162 | Fold Change of metabolite aspartic (platform nLC, p-Value 0.703732114): 0.2407 | Fold Change of metabolite pyridoxine (platform nLC, p-Value 0.708651225): −0.1294 | Fold Change of metabolite selenoDL-methionine (platform nLC, p-Value 0.711447529): 0.8515 | Fold Change of metabolite glutamic/acetylseri (platform nLC, p-Value 0.733962176): 0.1414 | Fold Change of metabolite asparagine (platform nLC, p-Value 0.758489047): 0.1511 | Fold Change of metabolite phenylalanine (platform nLC, p-Value 0.76165051): −0.1906 | Fold Change of metabolite leucine/isoleucine/ (platform nLC, p-Value 0.763305915): 0.1319 | Fold Change of metabolite serine (platform nLC, p-Value 0.766811518): 0.1091 | Fold Change of metabolite threonine/homoserin (platform nLC, p-Value 0.769444989): 0.1267 | Fold Change of metabolite allantoic acid (platform nLC, p-Value 0.777964345): −0.1456 | Fold Change of metabolite tetradecanoic acid (platform nLC, p-Value 0.782765706): −0.07723 | Fold Change of metabolite 4aminobutyrate/dimg (platform nLC, p-Value 0.820379809): −0.1983 | Fold Change of metabolite decanoic acid (platform nLC, p-Value 0.824169685): −0.08716 | Fold Change of metabolite glutamine/lysine (platform nLC, p-Value 0.835677767): 0.07919 | Fold Change of metabolite NacetylL-glutamate (platform nLC, p-Value 0.840704909): −0.1078 | Fold Change of metabolite menthol* (platform nLC, p-Value 0.852876357): −0.07013 | Fold Change of metabolite pipecolic acid (platform nLC, p-Value 0.871015411): 0.08112 | Fold Change of metabolite sugar-phosphate (platform nLC, p-Value 0.878141701): −0.1067 | Fold Change of metabolite oleic acid (platform nLC, p-Value 0.880270386): 0.689 | Fold Change of metabolite aconitic acid (platform nLC, p-Value 0.891314692): 0.5426 | Fold Change of metabolite palmitic acid (platform nLC, p-Value 0.90280612): 0.3979 | Fold Change of metabolite nicotinic acid (platform nLC, p-Value 0.972130606): 0.3131 | Fold Change of metabolite lauric acid (platform nLC, p-Value 0.972245476): 0.1225 | Fold Change of metabolite 4-methylcatechol (platform nLC, p-Value 1): 0
